Key:
Test in all cases: relative viability (nuclei count vs DMSO), 5 days (fraction); higher = more cells survive
UMC-11 = system: UMC-11
Outline: (§1)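 The day after seeding in 1536-well plates, lung cancer cell lines were treated by pin tool with a single drug, or with a fixed anchor-drug dose together with five library-drug doses (not always all listed) in √10 steps. After 5 days, a combined fix-and-stain solution (final 0.05% Triton X-100, 1% formaldehyde, 1 ug/ml Hoechst) was added. Nuclei counted on 4× images gave relative viability as treated counts over vehicle counts, reported as the median of duplicate plates.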

COR-L 105 = system: COR-L 105
Outline: as §1

NCI-H1792 = system: NCI-H1792
Outline: as §1

NCI-H1944 = system: NCI-H1944
Outline: as §1

SK-LU-1 = system: SK-LU-1
Outline: as §1

NCI-H2009 = system: NCI-H2009
Outline: as §1

LC-2-ad = system: LC-2-ad
Outline: as §1

A-427 = system: A-427
Outline: as §1

LU99A = system: LU99A
Outline: as §1

NCI-H2085 = system: NCI-H2085
Outline: as §1

SW 900 = system: SW 900
Outline: as §1

NCI-H1666 = system: NCI-H1666
Outline: as §1

HCC-78 = system: HCC-78
Outline: as §1

LXF-289 = system: LXF-289
Outline: as §1

NCI-H1915 = system: NCI-H1915
Outline: as §1

NCI-H460 = system: NCI-H460
Outline: as §1

NCI-H1793 = system: NCI-H1793
Outline: as §1

HOP-62 = system: HOP-62
Outline: as §1

NCI-H2170 = system: NCI-H2170
Outline: as §1

HCC-366 = system: HCC-366
Outline: as §1

EPLC-272H = system: EPLC-272H
Outline: as §1

NCI-H358 = system: NCI-H358
Outline: as §1

COc1cc2nccc(Oc3ccc(NC(=O)Nc4cc(C)on4)c(Cl)c3)c2cc1OC [Tivozanib] + Nc1ncn([C@H]2C[C@H](O)[C@@H](CO)O2)c(=O)n1 [Decitabine] (partner 2 µM)
relative viability (UMC-11; first compound 0.005 µM): 0.59
relative viability (UMC-11; first compound 0.01581 µM): 0.595
relative viability (UMC-11; first compound 0.05 µM): 0.657
relative viability (UMC-11; first compound 0.1581 µM): 0.478
relative viability (UMC-11; first compound 0.5 µM): 0.425
relative viability (COR-L 105; first compound 0.005 µM): 0.677
relative viability (COR-L 105; first compound 0.01581 µM): 0.638
relative viability (COR-L 105; first compound 0.05 µM): 0.731
relative viability (COR-L 105; first compound 0.1581 µM): 0.627
relative viability (COR-L 105; first compound 0.5 µM): 0.628
relative viability (NCI-H1792; first compound 0.005 µM): 0.514
relative viability (NCI-H1792; first compound 0.01581 µM): 0.538
relative viability (NCI-H1792; first compound 0.05 µM): 0.574
relative viability (NCI-H1792; first compound 0.5 µM): 0.499
relative viability (NCI-H1944; first compound 0.005 µM): 0.402
relative viability (NCI-H1944; first compound 0.01581 µM): 0.473
relative viability (NCI-H1944; first compound 0.05 µM): 0.447
relative viability (NCI-H1944; first compound 0.1581 µM): 0.459
relative viability (NCI-H1944; first compound 0.5 µM): 0.416
relative viability (SK-LU-1; first compound 0.005 µM): 0.647
relative viability (SK-LU-1; first compound 0.01581 µM): 0.643
relative viability (SK-LU-1; first compound 0.05 µM): 0.644
relative viability (SK-LU-1; first compound 0.1581 µM): 0.392
relative viability (SK-LU-1; first compound 0.5 µM): 0.618
relative viability (NCI-H2009; first compound 0.005 µM): 0.388
relative viability (NCI-H2009; first compound 0.01581 µM): 0.329
relative viability (NCI-H2009; first compound 0.05 µM): 0.382
relative viability (NCI-H2009; first compound 0.1581 µM): 0.369
relative viability (NCI-H2009; first compound 0.5 µM): 0.368
relative viability (LC-2-ad; first compound 0.005 µM): 0.835
relative viability (LC-2-ad; first compound 0.01581 µM): 0.681
relative viability (LC-2-ad; first compound 0.05 µM): 0.77
relative viability (LC-2-ad; first compound 0.1581 µM): 0.58
relative viability (LC-2-ad; first compound 0.5 µM): 0.57
relative viability (A-427; first compound 0.005 µM): 0.566
relative viability (A-427; first compound 0.01581 µM): 0.551
relative viability (A-427; first compound 0.05 µM): 0.575
relative viability (A-427; first compound 0.1581 µM): 0.566
relative viability (A-427; first compound 0.5 µM): 0.543
relative viability (LU99A; first compound 0.005 µM): 1.04
relative viability (LU99A; first compound 0.01581 µM): 0.769
relative viability (LU99A; first compound 0.05 µM): 0.894
relative viability (LU99A; first compound 0.1581 µM): 0.679
relative viability (LU99A; first compound 0.5 µM): 0.758
relative viability (NCI-H2085; first compound 0.005 µM): 0.536
relative viability (NCI-H2085; first compound 0.01581 µM): 0.609
relative viability (NCI-H2085; first compound 0.05 µM): 0.619
relative viability (NCI-H2085; first compound 0.1581 µM): 0.578
relative viability (NCI-H2085; first compound 0.5 µM): 0.562
relative viability (SW 900; first compound 0.005 µM): 0.454
relative viability (SW 900; first compound 0.01581 µM): 0.411
relative viability (SW 900; first compound 0.05 µM): 0.454
relative viability (SW 900; first compound 0.5 µM): 0.389
relative viability (NCI-H1666; first compound 0.005 µM): 0.664
relative viability (NCI-H1666; first compound 0.01581 µM): 0.683
relative viability (NCI-H1666; first compound 0.05 µM): 0.784
relative viability (NCI-H1666; first compound 0.1581 µM): 0.665
relative viability (NCI-H1666; first compound 0.5 µM): 0.643
relative viability (HCC-78; first compound 0.005 µM): 0.685
relative viability (HCC-78; first compound 0.01581 µM): 0.807
relative viability (HCC-78; first compound 0.05 µM): 0.733
relative viability (HCC-78; first compound 0.1581 µM): 0.651
relative viability (HCC-78; first compound 0.5 µM): 0.667
relative viability (LXF-289; first compound 0.005 µM): 0.331
relative viability (LXF-289; first compound 0.01581 µM): 0.363
relative viability (LXF-289; first compound 0.05 µM): 0.35
relative viability (LXF-289; first compound 0.1581 µM): 0.346
relative viability (LXF-289; first compound 0.5 µM): 0.404
relative viability (NCI-H1915; first compound 0.005 µM): 0.281
relative viability (NCI-H1915; first compound 0.01581 µM): 0.281
relative viability (NCI-H1915; first compound 0.05 µM): 0.253
relative viability (NCI-H1915; first compound 0.1581 µM): 0.293
relative viability (NCI-H1915; first compound 0.5 µM): 0.268
relative viability (NCI-H460; first compound 0.005 µM): 0.449
relative viability (NCI-H460; first compound 0.01581 µM): 0.468
relative viability (NCI-H460; first compound 0.05 µM): 0.48
relative viability (NCI-H460; first compound 0.1581 µM): 0.62
relative viability (NCI-H460; first compound 0.5 µM): 0.482
relative viability (NCI-H1793; first compound 0.005 µM): 0.474
relative viability (NCI-H1793; first compound 0.01581 µM): 0.518
relative viability (NCI-H1793; first compound 0.05 µM): 0.562
relative viability (NCI-H1793; first compound 0.5 µM): 0.481
relative viability (HOP-62; first compound 0.005 µM): 0.247
relative viability (HOP-62; first compound 0.01581 µM): 0.187
relative viability (HOP-62; first compound 0.05 µM): 0.2
relative viability (HOP-62; first compound 0.1581 µM): 0.256
relative viability (HOP-62; first compound 0.5 µM): 0.223
relative viability (NCI-H2170; first compound 0.005 µM): 0.463
relative viability (NCI-H2170; first compound 0.01581 µM): 0.495
relative viability (NCI-H2170; first compound 0.05 µM): 0.489
relative viability (NCI-H2170; first compound 0.5 µM): 0.458
relative viability (HCC-366; first compound 0.005 µM): 0.334
relative viability (HCC-366; first compound 0.01581 µM): 0.306
relative viability (HCC-366; first compound 0.05 µM): 0.346
relative viability (HCC-366; first compound 0.1581 µM): 0.349
relative viability (HCC-366; first compound 0.5 µM): 0.378
relative viability (EPLC-272H; first compound 0.005 µM): 0.342
relative viability (EPLC-272H; first compound 0.01581 µM): 0.416
relative viability (EPLC-272H; first compound 0.05 µM): 0.391
relative viability (EPLC-272H; first compound 0.1581 µM): 0.409
relative viability (EPLC-272H; first compound 0.5 µM): 0.365
relative viability (NCI-H358; first compound 0.005 µM): 0.187
relative viability (NCI-H358; first compound 0.01581 µM): 0.217
relative viability (NCI-H358; first compound 0.05 µM): 0.215
relative viability (NCI-H358; first compound 0.1581 µM): 0.222
relative viability (NCI-H358; first compound 0.5 µM): 0.206

Reference: the supplement of paper PMC10307832
